Experimental findings from patent EP2257297B1, “COMPOUNDS FOR USE IN THE TREATMENT OF ACNE, SEBORRHOEA AND SEBHORROEIC DERMATITIS, OR FOR REDUCING SEBUM SECRETION” (priority 2008, dated 2009) are described below.

pIC50: −log10 of the molar value.

The pIC50 is the IC50 on a negative log10 scale, so that one unit is a factor of ten.

T1 sequence (P33032 whole entry): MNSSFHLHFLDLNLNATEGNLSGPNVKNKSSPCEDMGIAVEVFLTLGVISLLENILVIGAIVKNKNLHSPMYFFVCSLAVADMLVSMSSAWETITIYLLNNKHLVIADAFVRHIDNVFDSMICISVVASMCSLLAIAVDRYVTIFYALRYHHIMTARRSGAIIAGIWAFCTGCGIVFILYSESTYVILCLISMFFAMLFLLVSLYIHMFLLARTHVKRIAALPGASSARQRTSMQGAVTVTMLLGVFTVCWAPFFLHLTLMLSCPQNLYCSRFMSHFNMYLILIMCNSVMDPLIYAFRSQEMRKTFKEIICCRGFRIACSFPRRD

This assay addresses T1, human MC5R (Homo sapiens, UniProt P33032).
T1 construct: purchased Perkin Elmer RBXMC5M400UA
In words: Human MC5R radioligand binding assay ([125I] NDP-MSH displacement, hMC5R membranes). As to conditions: hMC5R assay as in Example 102; compounds tested as trifluoroacetate or hydrochloride salts, or as free base. The essentials:
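Bound ligand collected by filtration on PEI-soaked GF/A filters and counted. Data fitted to a single-site competition model with fixed Hill coefficient to give EC50.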
For the molecule `O=C(NC[C@@H]1CCN(CC(c2ccccc2)c2ccccc2)C(=O)[C@H](CCCNC2CCCCC2)N1)c1ccc2ccccc2c1` [Compound 226, N-(((3S,5S)-3-(3-(cyclohexylamino)propyl)-1-(2,2-diphenylethyl)-2-oxo-1,4-diazepan-5-yl)methyl)-2-naphthamide], the pIC50 is greater than 7.00. As for `O=C(/C=C/c1ccc(F)cc1)NC[C@@H]1CCN(CC(c2ccccc2)c2ccccc2)C(=O)[C@H](CCCNC2CCCCC2)N1` [Compound 231, (E)-N-(((3S,5S)-3-(3-(cyclohexylamino)propyl)-1-(2,2-diphenylethyl)-2-oxo-1,4-diazepan-5-yl)methyl)-3-(4-fluorophenyl)acrylamide], the figure is greater than 8.00; as for `NCCC[C@@H]1N[C@H](CNC(=O)/C=C/c2ccc(F)cc2F)CCN(CC(c2ccccc2)c2ccccc2)C1=O` [Compound 233, (E)-N-(((3S,5S)-3-(3-aminopropyl)-1-(2,2-diphenylethyl)-2-oxo-1,4-diazepan-5-yl)methyl)-3-(2,4-difluorophenyl)acrylamide], greater than 7.00; as for `N#Cc1ccc(/C=C/C(=O)NC[C@@H]2CCN(CC(c3ccccc3)c3ccccc3)C(=O)[C@H](CCCN)N2)cc1` [Compound 234, (E)-N-(((3S,5S)-3-(3-aminopropyl)-1-(2,2-diphenylethyl)-2-oxo-1,4-diazepan-5-yl)methyl)-3-(4-cyanophenyl)acrylamide], greater than 6.00. In the case of `NCCC[C@@H]1N[C@H](CNC(=O)/C=C/c2ccc3ccccc3c2)CCN(CC(c2ccccc2)c2ccccc2)C1=O` [Compound 235, (E)-N-(((3S,5S)-3-(3-aminopropyl)-1-(2,2-diphenylethyl)-2-oxo-1,4-diazepan-5-yl)methyl)-3-(naphthalen-2-yl)acrylamide], the pIC50 is greater than 6.00. `NCCC[C@@H]1N[C@H](CNC(=O)c2ccc(-c3ccc(Cl)cc3)o2)CCN(CC(c2ccccc2)c2ccccc2)C1=O` [Compound 237, N-(((3S,5S)-3-(3-aminopropyl)-1-(2,2-diphenylethyl)-2-oxo-1,4-diazepan-5-yl)methyl)-5-(4-chlorophenyl)furan-2-carboxamide]: the pIC50 is greater than 7.00. Regarding `NCCC[C@@H]1N[C@H](CNC(=O)c2ccc(-n3cccc3)cc2)CCN(CC(c2ccccc2)c2ccccc2)C1=O` [Compound 238, N-(((3S,5S)-3-(3-aminopropyl)-1-(2,2-diphenylethyl)-2-oxo-1,4-diazepan-5-yl)methyl)-4-(1H-pyrrol-1-yl)benzamide], the pIC50 is greater than 7.00.

For `NCCC[C@@H]1N[C@H](CNC(=O)C2CCN(c3ccccc3)C2=O)CCN(CC(c2ccccc2)c2ccccc2)C1=O` (stereo partly drawn) [Compound 239, N-(((3S,5S)-3-(3-aminopropyl)-1-(2,2-diphenylethyl)-2-oxo-1,4-diazepan-5-yl)methyl)-2-oxo-1-phenylpyrrolidine-3-carboxamide], the pIC50 is greater than 5.00. To `NCCC[C@@H]1N[C@H](CNC(=O)c2cc(-c3ccc(Cl)cc3)on2)CCN(CC(c2ccccc2)c2ccccc2)C1=O` [Compound 240, N-(((3S,5S)-3-(3-aminopropyl)-1-(2,2-diphenylethyl)-2-oxo-1,4-diazepan-5-yl)methyl)-5-(4-chlorophenyl)isoxazole-3-carboxamide] belongs greater than 7.00; to `NCCC[C@@H]1N[C@H](CNC(=O)c2cc(-c3ccco3)on2)CCN(CC(c2ccccc2)c2ccccc2)C1=O` [Compound 241, N-(((3S,5S)-3-(3-aminopropyl)-1-(2,2-diphenylethyl)-2-oxo-1,4-diazepan-5-yl)methyl)-5-(furan-2-yl)isoxazole-3-carboxamide], greater than 6.00. For `NCCC[C@@H]1N[C@H](CNC(=O)c2csc(-c3ccccc3)n2)CCN(CC(c2ccccc2)c2ccccc2)C1=O` [Compound 242, N-(((3S,5S)-3-(3-aminopropyl)-1-(2,2-diphenylethyl)-2-oxo-1,4-diazepan-5-yl)methyl)-2-phenylthiazole-4-carboxamide], the negative-log IC50 (pIC50) was greater than 6.00. On to `Cc1cc(C)n(-c2ccc(C(=O)NC[C@@H]3CCN(CC(c4ccccc4)c4ccccc4)C(=O)[C@H](CCCN)N3)cc2)n1` [Compound 243, N-(((3S,5S)-3-(3-aminopropyl)-1-(2,2-diphenylethyl)-2-oxo-1,4-diazepan-5-yl)methyl)-4-(3,5-dimethyl-1H-pyrazol-1-yl)benzamide], for which the pIC50 was greater than 6.00.

`Cc1ccc(/C=C/C(=O)NC[C@@H]2CCN(CC(c3ccccc3)c3ccccc3)C(=O)[C@H](CCCN)N2)s1` [Compound 255, (E)-N-(((3S,5S)-3-(3-aminopropyl)-1-(2,2-diphenylethyl)-2-oxo-1,4-diazepan-5-yl)methyl)-3-(5-methylthiophen-2-yl)acrylamide]: the pIC50 is greater than 6.00. Consider `NCCC[C@@H]1N[C@H](CNC(=O)c2cc(-c3ccccc3)n[nH]2)CCN(CC(c2ccccc2)c2ccccc2)C1=O` [Compound 256, N-(((3S,5S)-3-(3-aminopropyl)-1-(2,2-diphenylethyl)-2-oxo-1,4-diazepan-5-yl)methyl)-3-phenyl-1H-pyrazole-5-carboxamide], for which the negative-log IC50 (pIC50) is greater than 6.00.

For the molecule `CN(C[C@@H]1CCN(CC(c2ccccc2)c2ccccc2)C(=O)[C@H](CCCN)N1)C(=O)/C=C/c1ccc(F)cc1` [Compound 257, (E)-N-(((3S,5S)-3-(3-aminopropyl)-1-(2,2-diphenylethyl)-2-oxo-1,4-diazepan-5-yl)methyl)-3-(4-fluorophenyl)-N-methylacrylamide], the pIC50 is greater than 5.00. As for `CN1[C@H](CNC(=O)/C=C/c2ccc(F)cc2)CCN(CC(c2ccccc2)c2ccccc2)C(=O)[C@@H]1CCCN` [Compound 258, (E)-N-(((3S,5S)-3-(3-aminopropyl)-1-(2,2-diphenylethyl)-4-methyl-2-oxo-1,4-diazepan-5-yl)methyl)-3-(4-fluorophenyl)acrylamide], the figure is greater than 6.00; as for `CC1=NN(c2ccc(C(=O)NC[C@@H]3CCN(CC(c4ccccc4)c4ccccc4)C(=O)[C@H](CCCN)N3)cc2)C(=O)C1` [Compound 259, N-(((3S,5S)-3-(3-aminopropyl)-1-(2,2-diphenylethyl)-2-oxo-1,4-diazepan-5-yl)methyl)-4-(3-methyl-5-oxo-4,5-dihydro-1H-pyrazol-1-yl)benzamide], greater than 6.00. In the case of `NCCC[C@@H]1N[C@H](CNC(=O)/C=C/c2ccc(Br)cc2)CCN(CC(c2ccccc2)c2ccccc2)C1=O` [Compound 260, (E)-N-(((3S,5S)-3-(3-aminopropyl)-1-(2,2-diphenylethyl)-2-oxo-1,4-diazepan-5-yl)methyl)-3-(4-bromophenyl)acrylamide], the pIC50 is greater than 7.00. To `O=C(/C=C/c1ccc(Cl)cc1)NC[C@@H]1CCN(CC(c2ccccc2)c2ccccc2)C(=O)[C@H](CCCN2CCCCC2)N1` [Compound 262, (E)-3-(4-chlorophenyl)-N-(((3S,5S)-1-(2,2-diphenylethyl)-2-oxo-3-(3-(piperidin-1-yl)propyl)-1,4-diazepan-5-yl)methyl)acrylamide] belongs greater than 7.00; to `Cc1ccc(C(=O)NC[C@@H]2CCN(CC(c3ccccc3)c3ccccc3)C(=O)[C@H](CCCN3CCCCC3)N2)cc1C` [Compound 270, N-(((3S,5S)-1-(2,2-diphenylethyl)-2-oxo-3-(3-(piperidin-1-yl)propyl)-1,4-diazepan-5-yl)methyl)-3,4-dimethylbenzamide], greater than 7.00; to `O=C(NC[C@@H]1CCN(CC(c2ccccc2)c2ccccc2)C(=O)[C@H](CCCN2CCCCC2)N1)c1ccc(Cl)c(Cl)c1` [Compound 271, 3,4-dichloro-N-(((3S,5S)-1-(2,2-diphenylethyl)-2-oxo-3-(3-(piperidin-1-yl)propyl)-1,4-diazepan-5-yl)methyl)benzamide], greater than 7.00.

Take `NC[C@@H]1N[C@H](CNC(=O)/C=C/c2ccc(Cl)cc2)CCN(CC(c2ccccc2)c2ccccc2)C1=O` [Compound 275, (E)-N-(((3S,5S)-3-(aminomethyl)-1-(2,2-diphenylethyl)-2-oxo-1,4-diazepan-5-yl)methyl)-3-(4-chlorophenyl)acrylamide]: the pIC50 was greater than 7.00. Consider `NCC[C@@H]1N[C@H](CNC(=O)/C=C/c2ccc(F)cc2)CCN(CC(c2ccccc2)c2ccccc2)C1=O` [Compound 276, (E)-N-(((3S,5S)-3-(2-aminoethyl)-1-(2,2-diphenylethyl)-2-oxo-1,4-diazepan-5-yl)methyl)-3-(4-fluorophenyl)acrylamide], for which the pIC50 is greater than 7.00. As to `Cc1ccc(/C=C/C(=O)NC[C@@H]2CCN(CC(c3ccccc3)c3ccccc3)C(=O)[C@H](CCN)N2)cc1` [Compound 277, (E)-N-(((3S,5S)-3-(2-aminoethyl)-1-(2,2-diphenylethyl)-2-oxo-1,4-diazepan-5-yl)methyl)-3-p-tolylacrylamide], the pIC50 is greater than 7.00. Regarding `O=C(/C=C/c1ccc(Cl)cc1)NC[C@@H]1CCN(CC(c2ccccc2)c2ccccc2)C(=O)[C@H](CN2CCCCC2)N1` [Compound 279, (E)-3-(4-chlorophenyl)-N-(((3S,5S)-1-(2,2-diphenylethyl)-2-oxo-3-(piperidin-1-ylmethyl)-1,4-diazepan-5-yl)methyl)acrylamide], the pIC50 was greater than 8.00. In the case of `NCC[C@@H]1N[C@H](CNC(=O)c2ccc(Cl)c(Cl)c2)CCN(CC(c2ccccc2)c2ccccc2)C1=O` [Compound 280, N-(((3S,5S)-3-(2-aminoethyl)-1-(2,2-diphenylethyl)-2-oxo-1,4-diazepan-5-yl)methyl)-3,4-dichlorobenzamide], the pIC50 is greater than 6.00.

Consider `Cc1ccc(C(=O)NC[C@@H]2CCN(CC(c3ccccc3)c3ccccc3)C(=O)[C@H](CCN)N2)cc1C` [Compound 281, N-(((3S,5S)-3-(2-aminoethyl)-1-(2,2-diphenylethyl)-2-oxo-1,4-diazepan-5-yl)methyl)-3,4-dimethylbenzamide], for which the pIC50 is greater than 6.00. Turning to `NCC[C@@H]1N[C@H](CNC(=O)/C=C/c2ccc(Cl)cc2)CCN(CC(c2ccccc2)c2ccccc2)C1=O` [Compound 283, (E)-N-(((3S,5S)-3-(2-aminoethyl)-1-(2,2-diphenylethyl)-2-oxo-1,4-diazepan-5-yl)methyl)-3-(4-chlorophenyl)acrylamide], the pIC50 was greater than 7.00.
